{"source": "patent US9737498B2", "about": "“Method for treating an inflammation or lesion caused by a virus” (priority 2001, dated 2017)", "key": {"[1]": {"system": "Herpes simplex virus 1 (HSV-1)", "assay": "Growth inhibition of HSV-1 in vitro (Vero cells, cytopathic effect / plaques)", "assay_type": "cell-based", "conditions": "for Upper pH limit at which HSV-1 is inactivated by the alcohol: alcohol 0.2% by volume, pH adjusted with HCl, tested pH 4.0 to 6.8 at increments of 0.2, incubated with the virus for 2 minutes; for Virus growth (HSV-1): pH 3.5 (HCl)"}, "[2]": {"system": "\"enveloped\" viruses (herpesvirus, orthomyxovirus and rhabdovirus (Rabies virus))", "conditions": "room temperature, aqueous solutions of pure acids; cited from earlier work"}, "[3]": {"system": "VSV (a lipid-coated virus)", "conditions": "cited from earlier work"}, "rhinoviruses": {"system": "rhinoviruses", "conditions": "foams; cited from earlier work"}, "[4]": {"system": "naked viruses (e.g., poliovirus type 1)", "conditions": "alcohol alone; cited from earlier work"}}, "note": "Like-named read-outs stand apart in the source and are kept apart here.", "data": [{"compound": "CCCCO", "note": "[n-butanol]", "values": [{"measurement": "Upper pH limit at which HSV-1 is inactivated by the alcohol", "setting": "[1]", "result": 4.6}]}, {"compound": "CO", "note": "[methanol]", "values": [{"measurement": "Upper pH limit at which HSV-1 is inactivated by the alcohol", "setting": "[1]", "result": 4.6}]}, {"compound": "O=C(O)CCC(=O)O", "note": "[succinic acid]", "values": [{"measurement": "Effectiveness in vitro against enveloped viruses", "setting": "[2]", "result": "effective"}]}, {"compound": "CCO", "note": "[ethanol]", "values": [{"measurement": "Virus growth (HSV-1)", "setting": "[1]; 1.0% ethanol, 5 minute exposure, diluted 1/16 with Eagles medium", "result": "+"}, {"measurement": "Virus growth (HSV-1)", "setting": "[1]; 1.0% ethanol, 5 minute exposure, diluted 1/64 with Eagles medium", "result": "+"}, {"measurement": "Virus growth (HSV-1)", "setting": "[1]; 1.0% ethanol, 5 minute exposure, diluted ¼ with Eagles medium", "result": "+"}, {"measurement": "Virus growth (HSV-1)", "setting": "[1]; 1.0% ethanol, 5 minute exposure, undiluted", "result": "+"}, {"measurement": "Virus growth (HSV-1)", "setting": "[1]; 1.0% ethanol, 10 minute exposure, diluted 1/16 with Eagles medium", "result": "+"}, {"measurement": "Virus growth (HSV-1)", "setting": "[1]; 1.0% ethanol, 10 minute exposure, diluted 1/64 with Eagles medium", "result": "+"}, {"measurement": "Virus growth (HSV-1)", "setting": "[1]; 1.0% ethanol, 10 minute exposure, diluted ¼ with Eagles medium", "result": "+"}, {"measurement": "Virus growth (HSV-1)", "setting": "[1]; 1.0% ethanol, 10 minute exposure, undiluted", "result": "−"}, {"measurement": "Inhibition of growth of the virus (HSV-1)", "setting": "[1]; 2.5% ethanol solution diluted by ¼, pH 3.5, exposure time 10 minutes", "result": "effectively inhibited growth of the virus"}, {"measurement": "Virus growth (HSV-1)", "setting": "[1]; 2.5% ethanol, 5 minute exposure, diluted 1/16 with Eagles medium", "result": "+"}, {"measurement": "Virus growth (HSV-1)", "setting": "[1]; 2.5% ethanol, 5 minute exposure, diluted 1/64 with Eagles medium", "result": "+"}, {"measurement": "Virus growth (HSV-1)", "setting": "[1]; 2.5% ethanol, 5 minute exposure, diluted ¼ with Eagles medium", "result": "+"}, {"measurement": "Virus growth (HSV-1)", "setting": "[1]; 2.5% ethanol, 5 minute exposure, undiluted", "result": "+"}, {"measurement": "Virus growth (HSV-1)", "setting": "[1]; 2.5% ethanol, 10 minute exposure, diluted 1/16 with Eagles medium", "result": "+"}, {"measurement": "Virus growth (HSV-1)", "setting": "[1]; 2.5% ethanol, 10 minute exposure, diluted 1/64 with Eagles medium", "result": "+"}, {"measurement": "Virus growth (HSV-1)", "setting": "[1]; 2.5% ethanol, 10 minute exposure, diluted ¼ with Eagles medium", "result": "−"}, {"measurement": "Virus growth (HSV-1)", "setting": "[1]; 2.5% ethanol, 10 minute exposure, undiluted", "result": "−"}, {"measurement": "Virus growth (HSV-1)", "setting": "[1]; 5.0% ethanol, 5 minute exposure, diluted 1/16 with Eagles medium", "result": "+"}, {"measurement": "Virus growth (HSV-1)", "setting": "[1]; 5.0% ethanol, 5 minute exposure, diluted 1/64 with Eagles medium", "result": "+"}, {"measurement": "Virus growth (HSV-1)", "setting": "[1]; 5.0% ethanol, 5 minute exposure, diluted ¼ with Eagles medium", "result": "+"}, {"measurement": "Virus growth (HSV-1)", "setting": "[1]; 5.0% ethanol, 5 minute exposure, undiluted", "result": "+"}, {"measurement": "Virus growth (HSV-1)", "setting": "[1]; 5.0% ethanol, 10 minute exposure, diluted 1/16 with Eagles medium", "result": "+"}, {"measurement": "Virus growth (HSV-1)", "setting": "[1]; 5.0% ethanol, 10 minute exposure, diluted 1/64 with Eagles medium", "result": "+"}, {"measurement": "Virus growth (HSV-1)", "setting": "[1]; 5.0% ethanol, 10 minute exposure, diluted ¼ with Eagles medium", "result": "−"}, {"measurement": "Virus growth (HSV-1)", "setting": "[1]; 5.0% ethanol, 10 minute exposure, undiluted", "result": "−"}, {"measurement": "Virus growth (HSV-1)", "setting": "[1]; 10% ethanol, 5 minute exposure, diluted 1/16 with Eagles medium", "result": "+"}, {"measurement": "Virus growth (HSV-1)", "setting": "[1]; 10% ethanol, 5 minute exposure, diluted 1/64 with Eagles medium", "result": "+"}, {"measurement": "Virus growth (HSV-1)", "setting": "[1]; 10% ethanol, 5 minute exposure, diluted ¼ with Eagles medium", "result": "+"}, {"measurement": "Virus growth (HSV-1)", "setting": "[1]; 10% ethanol, 5 minute exposure, undiluted", "result": "+"}, {"measurement": "Virus growth (HSV-1)", "setting": "[1]; 10% ethanol, 10 minute exposure, diluted 1/16 with Eagles medium", "result": "+"}, {"measurement": "Virus growth (HSV-1)", "setting": "[1]; 10% ethanol, 10 minute exposure, diluted 1/64 with Eagles medium", "result": "+"}, {"measurement": "Virus growth (HSV-1)", "setting": "[1]; 10% ethanol, 10 minute exposure, diluted ¼ with Eagles medium", "result": "−"}, {"measurement": "Virus growth (HSV-1)", "setting": "[1]; 10% ethanol, 10 minute exposure, undiluted", "result": "−"}, {"measurement": "Inhibition of the virus (HSV-1)", "setting": "[1]; 12.5% ethanol solution, pH 3.5, exposure time of five minutes", "result": "inhibited the virus"}, {"measurement": "Virus growth (HSV-1)", "setting": "[1]; 12.5% ethanol, 5 minute exposure, diluted 1/16 with Eagles medium", "result": "+"}, {"measurement": "Virus growth (HSV-1)", "setting": "[1]; 12.5% ethanol, 5 minute exposure, diluted 1/64 with Eagles medium", "result": "+"}, {"measurement": "Virus growth (HSV-1)", "setting": "[1]; 12.5% ethanol, 5 minute exposure, diluted ¼ with Eagles medium", "result": "−"}, {"measurement": "Virus growth (HSV-1)", "setting": "[1]; 12.5% ethanol, 5 minute exposure, undiluted", "result": "−"}, {"measurement": "Virus growth (HSV-1)", "setting": "[1]; 12.5% ethanol, 10 minute exposure, diluted 1/16 with Eagles medium", "result": "−"}, {"measurement": "Virus growth (HSV-1)", "setting": "[1]; 12.5% ethanol, 10 minute exposure, diluted 1/64 with Eagles medium", "result": "+"}, {"measurement": "Virus growth (HSV-1)", "setting": "[1]; 12.5% ethanol, 10 minute exposure, diluted ¼ with Eagles medium", "result": "−"}, {"measurement": "Virus growth (HSV-1)", "setting": "[1]; 12.5% ethanol, 10 minute exposure, undiluted", "result": "−"}, {"measurement": "Upper pH limit at which HSV-1 is inactivated by the alcohol", "setting": "[1]", "result": 4.4}, {"measurement": "Virucidal activity against VSV", "setting": "[3]; pH of about 4 to 5 at 4° C., aqueous solution of biologically active protein", "result": "fairly inactive"}, {"measurement": "Effectiveness in killing rhinoviruses", "setting": "rhinoviruses", "result": "not effective"}, {"measurement": "Activity against naked viruses", "setting": "[4]", "result": "did not exhibit sufficient activities"}]}, {"compound": "CCCO", "note": "[propanol, reference compound]", "values": [{"measurement": "Activity against naked viruses", "setting": "[4]", "result": "did not exhibit sufficient activities"}]}, {"compound": "O=C(O)CC(O)(CC(=O)O)C(=O)O", "note": "[citric acid]", "values": [{"measurement": "Effectiveness in vitro against enveloped viruses", "setting": "[2]", "result": "effective"}]}, {"compound": "O=C(O)CO", "note": "[glycolic acid]", "values": [{"measurement": "Virus growth at sample dilution (HSV-1)", "setting": "[1]; aqueous acid solution pH 3.8, exposure of 4 minutes, dilution 1/16", "result": "−"}, {"measurement": "Virus growth at sample dilution (HSV-1)", "setting": "[1]; aqueous acid solution pH 3.8, exposure of 4 minutes, dilution 1/64", "result": "−"}, {"measurement": "Virus growth at sample dilution (HSV-1)", "setting": "[1]; aqueous acid solution pH 3.8, exposure of 4 minutes, dilution ¼", "result": "−"}, {"measurement": "Virus growth at sample dilution (HSV-1)", "setting": "[1]; aqueous acid solution pH 3.8, exposure of 4 minutes, undiluted", "result": "−"}, {"measurement": "Virus growth at sample dilution (HSV-1)", "setting": "[1]; aqueous acid solution pH 4.0, exposure of 4 minutes, dilution 1/16", "result": "+"}, {"measurement": "Virus growth at sample dilution (HSV-1)", "setting": "[1]; aqueous acid solution pH 4.0, exposure of 4 minutes, dilution 1/64", "result": "+"}, {"measurement": "Virus growth at sample dilution (HSV-1)", "setting": "[1]; aqueous acid solution pH 4.0, exposure of 4 minutes, dilution ¼", "result": "+"}, {"measurement": "Virus growth at sample dilution (HSV-1)", "setting": "[1]; aqueous acid solution pH 4.0, exposure of 4 minutes, undiluted", "result": "+"}, {"measurement": "Virus growth at sample dilution (HSV-1)", "setting": "[1]; aqueous acid solution pH 4.2, exposure of 4 minutes, dilution 1/16", "result": "+"}, {"measurement": "Virus growth at sample dilution (HSV-1)", "setting": "[1]; aqueous acid solution pH 4.2, exposure of 4 minutes, dilution 1/64", "result": "+"}, {"measurement": "Virus growth at sample dilution (HSV-1)", "setting": "[1]; aqueous acid solution pH 4.2, exposure of 4 minutes, dilution ¼", "result": "+"}, {"measurement": "Virus growth at sample dilution (HSV-1)", "setting": "[1]; aqueous acid solution pH 4.2, exposure of 4 minutes, undiluted", "result": "−"}, {"measurement": "Virus growth at sample dilution (HSV-1)", "setting": "[1]; aqueous acid solution pH 6.0, exposure of 4 minutes, dilution 1/16", "result": "+"}, {"measurement": "Virus growth at sample dilution (HSV-1)", "setting": "[1]; aqueous acid solution pH 6.0, exposure of 4 minutes, dilution 1/64", "result": "+"}, {"measurement": "Virus growth at sample dilution (HSV-1)", "setting": "[1]; aqueous acid solution pH 6.0, exposure of 4 minutes, dilution ¼", "result": "+"}, {"measurement": "Virus growth at sample dilution (HSV-1)", "setting": "[1]; aqueous acid solution pH 6.0, exposure of 4 minutes, undiluted", "result": "+"}]}, {"compound": "CC(O)C(C)O", "note": "(stereo not drawn) [2,3-butanediol]", "values": [{"measurement": "Upper pH limit at which HSV-1 is inactivated by the alcohol", "setting": "[1]", "result": 4.6}]}, {"compound": "CC(=O)C(=O)O", "note": "[pyruvic acid]", "values": [{"measurement": "Effectiveness in vitro against enveloped viruses", "setting": "[2]", "result": "effective"}]}, {"compound": "O=C(O)CC(O)C(=O)O", "note": "(stereo not drawn) [malic acid]", "values": [{"measurement": "Effectiveness in vitro against enveloped viruses", "setting": "[2]", "result": "effective"}]}, {"compound": "CCC(O)CO", "note": "(stereo not drawn) [1,2-butanediol]", "values": [{"measurement": "Upper pH limit at which HSV-1 is inactivated by the alcohol", "setting": "[1]", "result": 4.2}]}, {"compound": "butanol [reference compound]", "values": [{"measurement": "Virucidal activity against VSV", "setting": "[3]", "result": "fairly inactive"}]}]}
